These results are taken from patent EP4585588A1, “BENZIMIDAZOLE COMPOUND, AND PREPARATION METHOD THEREFOR AND USE THEREOF” (Suzhou Pharmavan Co., Ltd., priority 2022, dated 2024).

Structures are written as SMILES.

Test [1] has as its system Primary cardiomyocytes of suckling rats. Briefly: Area measurement of cardiomyocytes after PE injury. In kind it is cell-based. Particulars: 48 h, 10 µM. The procedure:
Primary cardiomyocytes of suckling rats were isolated and cultured and inoculated on a cell culture plate. A drug stock solution was taken and separately added to cell wells according to a certain dilution ratio, and a final concentration was 10 µM. After half hour of drug action, a phenylephrine (PE) stock solution was added, and a final concentration of PE was 20 µM. After 48 hours of PE action, cell samples were collected for real-time quantitative PCR assay or cell area measurement.
Separation and plating of cardiomyocytes of rats: a certain number of SPF suckling rats were taken and placed in a clean bench according to an actual requirement for the number of cells, thoracic cavities were opened by scissors, hearts were separated, and the hearts were cut into tissue fragments with sterilized surgical scissors; Collagenase Type II (manufacturer: Sigma, article No.: C2-28-100MG) was added to a D-HANKS balanced salt buffer to prepare a […] enzyme digestion solution, and the tissue fragments of hearts were continuously digested for three times in a 37 °C constant-temperature water bath box; about 2 mL of the enzyme digestion solution was added for the first time, a supernatant was discarded after digestion, centrifugation and precipitation of cardiomyocytes and tissue fragments, about 4 mL of the enzyme digestion solution was independently added for the second time and the third time to continue digestion, a supernatant was remained each time, DMEM containing 10% FBS with the same volume as the digestion solution in the supernatant was immediately added to neutralize digestive enzymes, the supernatants for the second time and the third time were combined and centrifuged, a supernatant was discarded, an appropriate amount of DMEM containing 10% FBS was added to resuspend the cardiomyocytes, the cardiomyocytes were inoculated in a 100 mm culture plate and subjected to differential adhesion in a constant-temperature cell incubator for 2 h, and a supernatant was taken for cell count.
Area measurement of cardiomyocytes of rats: a 24-well plate precoated with 1% gelatin was taken and plated at 1.0×10^3 cells/well, 500 µL of a 10% FBS+DMEM medium was contained in each well, and cells were cultured in a 37 °C constant-temperature cell incubator for 24 h; different compounds were independently prepared into a 100 mM mother liquor with DMSO and gradient diluted with a 10% FBS+DMEM medium to prepare a 10 µM final solution of the compound containing […]; the medium in the 24-well plate was discarded and replaced with a 500 µL/well medium containing a 10 µM compound, and three replicate wells and a negative control well were set for each compound; after 0.5 hours of drug action, PE (manufacturer: Meilun Biotechnology; article No.: MB1602) with a final concentration of 20 µM was added to each well, and no PE was added to the negative control wells; after 48 hours of PE action, at least five fields of view were randomly selected from each well under an inverted microscope (manufacturer: Nikon; model: Eclipse TS100), and the cell area data was calculated by Image J software; the area of the cells in the negative control wells was set to 1, the cell area hypertrophy multiples of the PE wells and each administration well were calculated separately, and statistical analysis was performed using the One-Way ANOVA method.
The cardiomyocyte area was directly measured and the differences between the groups were compared for verification. The cardiomyocytes were co-intervened with PE and drugs and placed under a microscope for direct observation, and images were taken. The cell area data was calculated using Image J software. […]

Test [2] relates to myosin heavy chain β (β-MHC). The note with it: 48 h, 10 µM.
Procedure: Separation and plating of cardiomyocytes of rats: a certain number of SPF suckling rats were taken and placed in a clean bench according to an actual requirement for the number of cells, thoracic cavities were opened by scissors, hearts were separated, and the hearts were cut into tissue fragments with sterilized surgical scissors; Collagenase Type II (manufacturer: Sigma, article No.: C2-28-100MG) was added to a D-HANKS balanced salt buffer to prepare a 5 µg/mL enzyme digestion solution, and the tissue fragments of hearts were continuously digested for three times in a 37 °C constant-temperature water bath box; about 2 mL of the enzyme digestion solution was added for the first time, a supernatant was discarded after digestion, centrifugation and precipitation of cardiomyocytes and tissue fragments, about 4 mL of the enzyme digestion solution was independently added for the second time and the third time to continue digestion, a supernatant was remained each time, DMEM containing 10% FBS with the same volume as the digestion solution in the supernatant was immediately added to neutralize digestive enzymes, the supernatants for the second time and the third time were combined and centrifuged, a supernatant was discarded, an appropriate amount of DMEM containing 10% FBS was added to resuspend the cardiomyocytes, the cardiomyocytes were inoculated in a 100 mm culture plate and subjected to differential adhesion in a constant-temperature cell incubator for 2 h, and a supernatant was taken for cell count.
A 24-well plate precoated with 1% gelatin was taken and plated at 1×10^5 cells/well, 500 µL of a 10% FBS+DMEM medium was contained in each well, and cells were cultured in a 37 °C constant-temperature cell incubator for 24 h. Different compounds were independently prepared into a 100 mM mother liquor with DMSO and gradient diluted with a 10% FBS+DMEM medium to prepare a 10 µM final solution of the compound containing 0.5% DMSO. The medium in the 24-well plate was discarded and replaced with a 500 µL/well medium containing a 10 µM compound, and three replicate wells and a negative control well were set for each compound. After 0.5 hours of drug action, PE (manufacturer: Meilun Biotechnology; article No.: MB1602) with a final concentration of 20 µM was added to each well, and no PE was added to the negative control wells; after 48 hours of PE action, sample detection was performed.
Expression levels of genes related to cardiomyocyte hypertrophy was analyzed via real-time quantitative PCR detection of mRNA level of atrial natriuretic peptide (ANP) and myosin heavy chain β (β-MHC). The steps include extraction of total RNA of cells, reverse transcription synthesis of cDNA and real-time quantitative PCR assay.
Based on real-time quantitative PCR detection of an mRNA level of ANP of cardiomyocytes, a drug with a potential of anti-cardiomyocyte hypertrophy was preliminarily screened and verified with an mRNA level of another hypertrophy gene β-MHC using a statistical method One-way ANOVA and statistical software GraphPad Prism.
In test [3] the test system is Models of Heart Failure due to Pressure Overload of Mice. Briefly: Pharmacodynamic test in mouse models of heart failure due to pressure overload (thoracic aorta ligation). Particulars: 5 mg/kg intraperitoneal once a day for four consecutive weeks, after four weeks of administration (nine weeks of modeling); for Ejection Fraction (Mean) of Ventriculus Sinister of Heart: Table 5, model group 28.6%. It counts as in vivo, C57BL/6 mice. The procedure: 1.1 Animals healthy C57BL/6 mice
Modeling by thoracic aorta ligation surgery: preoperative echocardiography was performed to exclude mice with abnormal cardiac functions; for mice with normal cardiac functions, anesthesia was performed, and the mice were anesthetized and then transferred into a small animal operating table and fixed; an open airway was established via endotracheal intubation, and anesthesia was maintained; taking the second rib as the center, the skin was cut along the sternum toward the first and third ribs to expose the connection between the second rib and the sternum; the second rib was cut to expose the aorta thoracic segment; the aortic arch was freed, a thin thread was inserted underneath, a thin needle was placed in parallel to the aortic arch for co-ligation; after ligation, the thin needle was withdrawn to observe the condition of the mice, and the mice were sutured layer by layer after stabilization; the mice were placed on the thermal insulation pad to keep warm, and after waking up, the mice were put back into the cage for daily feeding according to the activity.
After five weeks of modeling, echocardiography was performed on the mice to determine the ejection fractions of the hearts of the mice. When the ejection fraction decreased by about 50%, the ejection fraction met the experimental requirements, and the administration experiment started. Animals were grouped randomly and administered according to the ultrasound data, the echocardiography was performed every two weeks until week 9 ended, and pathological section analysis was performed.
The results were expressed using mean±standard error, data analysis was performed using GraphPad Prism statistical software, and the comparison was analyzed using a t-test. P < 0.05 was determined that there was a difference with statistical significance, otherwise P was determined that there was no significant difference.

Regarding `Cc1nc2cc(-c3cc(F)cc(C#N)c3O)ccc2[nH]1` [Formula I-3, 5-fluoro-2-hydroxy-3-(2-methyl-1H-benzimidazol-5-yl)benzonitrile], the “Cell Area Hypertrophy Multiple (Mean±Standard Deviation) Compared with Control Wells” value in test [1] came out at 1.07±0.15. Also, the “Mean (real-time quantitative PCR validation results of cardiomyocyte β-MHC)” value in test [2] amounted to 1.24. For the same compound, the “Ejection Fraction (Mean) of Ventriculus Sinister of Heart” value in test [3] was found to be 37.8%.
The like results for `Cc1nc2cc(-c3cc(C(N)=O)ccc3O)ccc2[nH]1` [Formula I-4, 4-hydroxy-3-(2-methyl-1H-benzimidazol-5-yl)benzamide] were, in that order, 1.27±0.34, 1.15 and 35.4%.
For the compound `OCc1ccc(F)cc1-c1ccc2[nH]cnc2c1` [Formula II-121, (4-fluoro-2-(1H-benzimidazol-5-yl)phenyl)methanol], in test [1], the “Cell Area Hypertrophy Multiple (Mean±Standard Deviation) Compared with Control Wells” value was determined as 1.48±0.09. Further, the “Mean (real-time quantitative PCR validation results of cardiomyocyte β-MHC)” value in test [2] is 1.25. In addition, the “Ejection Fraction (Mean) of Heart” value in test [3] (Table 6, model group 29.8%) was 42.2%.
